Among the data in ChEMBL document CHEMBL5465560, “Selectivity Literature for EUbOPEN Chemogenomic Library” (2024) are % of control and % of engagement values, retold here.

Test [1] has as its target Platelet-derived growth factor receptor alpha (Homo sapiens, UniProt P16234). Kind of test: Selectivity interaction (KinomeScan (DiscoverX)) EUB0000595a PDGFRA. The note with it: at 10 µM.
In test [2] the target is Cyclin-dependent kinase 14 (Homo sapiens) (UniProt O94921). Kind of test: Selectivity interaction (KinomeScan (DiscoverX)) EUB0001619a CDK14. The note with it: at 1 µM.
Chain of Cyclin-dependent kinase 14 (Homo sapiens) (O94921 whole entry): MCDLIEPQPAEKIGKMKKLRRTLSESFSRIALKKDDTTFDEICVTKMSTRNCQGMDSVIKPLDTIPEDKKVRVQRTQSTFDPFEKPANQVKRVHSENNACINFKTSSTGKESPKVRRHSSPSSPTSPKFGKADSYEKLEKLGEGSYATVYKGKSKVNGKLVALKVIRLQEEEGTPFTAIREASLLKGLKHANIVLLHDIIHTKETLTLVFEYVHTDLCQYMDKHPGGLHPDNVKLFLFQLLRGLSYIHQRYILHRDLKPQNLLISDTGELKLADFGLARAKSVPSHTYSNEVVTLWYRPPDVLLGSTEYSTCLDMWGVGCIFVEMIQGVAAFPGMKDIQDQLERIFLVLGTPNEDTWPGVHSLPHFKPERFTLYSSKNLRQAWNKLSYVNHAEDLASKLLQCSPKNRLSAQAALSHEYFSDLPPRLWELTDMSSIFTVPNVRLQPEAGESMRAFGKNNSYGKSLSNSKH
Test [3] deals with Serine/threonine-protein kinase PAK 3 (Homo sapiens) (UniProt O75914). Nature of the test: Selectivity interaction (Ambit KINOMEscan and KiNATiv profiling in Jurkat cells) EUB0000090b PAK3. The test is classed as cell-based. To be noted: at 1 µM.
Chain of Serine/threonine-protein kinase PAK 3 (Homo sapiens) (O75914 whole entry, looked up): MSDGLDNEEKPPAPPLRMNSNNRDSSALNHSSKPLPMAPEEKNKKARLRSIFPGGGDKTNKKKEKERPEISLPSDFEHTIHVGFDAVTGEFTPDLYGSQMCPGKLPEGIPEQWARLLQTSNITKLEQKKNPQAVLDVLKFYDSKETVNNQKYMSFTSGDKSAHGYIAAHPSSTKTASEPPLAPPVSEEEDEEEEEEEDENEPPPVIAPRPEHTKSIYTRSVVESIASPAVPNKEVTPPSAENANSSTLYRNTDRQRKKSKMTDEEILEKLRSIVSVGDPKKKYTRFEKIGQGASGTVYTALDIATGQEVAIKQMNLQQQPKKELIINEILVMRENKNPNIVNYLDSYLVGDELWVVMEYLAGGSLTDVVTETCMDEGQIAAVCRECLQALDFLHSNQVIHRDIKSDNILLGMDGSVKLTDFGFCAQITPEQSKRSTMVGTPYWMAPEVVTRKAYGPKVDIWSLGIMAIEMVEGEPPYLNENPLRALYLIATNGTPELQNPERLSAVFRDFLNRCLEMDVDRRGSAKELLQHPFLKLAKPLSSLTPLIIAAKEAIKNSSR
Test [4] deals with T1, Cyclin-G-associated kinase (Homo sapiens) (UniProt O14976).
T1 sequence (whole entry): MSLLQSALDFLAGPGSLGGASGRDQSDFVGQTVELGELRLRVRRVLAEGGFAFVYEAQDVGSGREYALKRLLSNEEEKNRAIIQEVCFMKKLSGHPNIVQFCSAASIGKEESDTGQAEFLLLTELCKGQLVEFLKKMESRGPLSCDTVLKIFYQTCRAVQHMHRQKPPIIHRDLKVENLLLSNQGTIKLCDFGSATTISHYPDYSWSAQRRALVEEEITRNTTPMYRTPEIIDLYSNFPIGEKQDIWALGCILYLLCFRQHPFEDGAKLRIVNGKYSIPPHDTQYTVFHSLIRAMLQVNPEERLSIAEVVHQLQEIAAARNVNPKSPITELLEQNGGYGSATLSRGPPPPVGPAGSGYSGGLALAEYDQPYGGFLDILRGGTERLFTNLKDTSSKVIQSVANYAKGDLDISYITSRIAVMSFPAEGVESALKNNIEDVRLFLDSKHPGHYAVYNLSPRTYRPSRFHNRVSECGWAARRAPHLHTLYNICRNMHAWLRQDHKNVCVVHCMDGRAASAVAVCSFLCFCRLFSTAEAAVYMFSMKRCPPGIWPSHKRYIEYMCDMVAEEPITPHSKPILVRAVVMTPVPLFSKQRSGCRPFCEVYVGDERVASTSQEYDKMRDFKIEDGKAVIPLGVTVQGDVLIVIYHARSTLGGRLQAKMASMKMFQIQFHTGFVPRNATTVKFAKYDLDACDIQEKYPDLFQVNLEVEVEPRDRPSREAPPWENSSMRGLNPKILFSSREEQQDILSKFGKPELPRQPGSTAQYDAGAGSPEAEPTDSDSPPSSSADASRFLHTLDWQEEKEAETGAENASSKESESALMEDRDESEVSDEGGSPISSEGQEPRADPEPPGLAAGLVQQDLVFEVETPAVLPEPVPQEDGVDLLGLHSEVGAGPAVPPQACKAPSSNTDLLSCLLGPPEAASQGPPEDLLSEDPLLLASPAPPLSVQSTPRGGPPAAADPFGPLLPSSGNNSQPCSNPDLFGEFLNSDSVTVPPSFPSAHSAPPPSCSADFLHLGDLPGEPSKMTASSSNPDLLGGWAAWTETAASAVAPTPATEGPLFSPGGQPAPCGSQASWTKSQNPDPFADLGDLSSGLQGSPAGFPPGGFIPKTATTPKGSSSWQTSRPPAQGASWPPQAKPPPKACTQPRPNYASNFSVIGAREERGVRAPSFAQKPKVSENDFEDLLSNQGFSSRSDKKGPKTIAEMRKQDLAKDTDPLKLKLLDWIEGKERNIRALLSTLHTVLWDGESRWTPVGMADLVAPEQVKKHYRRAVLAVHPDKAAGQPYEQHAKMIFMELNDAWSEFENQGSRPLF
Kind of test: Selectivity interaction (KinomeScan (DiscoverX)) EUB0001049a GAK. To be noted: at 1 µM.

The target of test [5] is NT-3 growth factor receptor (Homo sapiens, UniProt Q16288). Nature of the test: Selectivity interaction (KinomeScan (DiscoverX)) EUB0000618a NTRK3. To be noted: at 10 µM.
Chain of NT-3 growth factor receptor (Q16288 32-839 limits assumed): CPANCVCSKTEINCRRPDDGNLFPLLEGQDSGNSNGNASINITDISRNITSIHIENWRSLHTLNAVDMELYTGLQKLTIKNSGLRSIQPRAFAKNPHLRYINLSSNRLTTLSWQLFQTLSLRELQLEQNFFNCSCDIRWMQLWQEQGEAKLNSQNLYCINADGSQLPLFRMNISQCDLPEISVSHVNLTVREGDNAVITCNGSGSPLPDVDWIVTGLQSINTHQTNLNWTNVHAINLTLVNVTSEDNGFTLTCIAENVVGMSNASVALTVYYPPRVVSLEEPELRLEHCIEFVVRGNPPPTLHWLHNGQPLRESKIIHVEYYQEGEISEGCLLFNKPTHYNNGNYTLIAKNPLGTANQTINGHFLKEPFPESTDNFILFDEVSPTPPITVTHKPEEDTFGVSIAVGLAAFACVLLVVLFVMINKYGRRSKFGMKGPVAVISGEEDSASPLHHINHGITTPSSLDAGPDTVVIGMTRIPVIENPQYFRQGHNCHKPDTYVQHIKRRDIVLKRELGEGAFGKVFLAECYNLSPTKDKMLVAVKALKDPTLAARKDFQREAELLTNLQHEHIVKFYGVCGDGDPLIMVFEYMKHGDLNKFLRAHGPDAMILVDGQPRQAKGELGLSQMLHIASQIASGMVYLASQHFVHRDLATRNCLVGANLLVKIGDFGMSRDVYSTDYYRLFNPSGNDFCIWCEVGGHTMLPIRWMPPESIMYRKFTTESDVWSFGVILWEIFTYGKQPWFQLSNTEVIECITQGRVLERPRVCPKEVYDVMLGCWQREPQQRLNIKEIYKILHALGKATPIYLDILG
The target in test [6] is T2, Serine/threonine-protein kinase Nek3 (Homo sapiens) (UniProt P51956).
T2 sequence (whole entry): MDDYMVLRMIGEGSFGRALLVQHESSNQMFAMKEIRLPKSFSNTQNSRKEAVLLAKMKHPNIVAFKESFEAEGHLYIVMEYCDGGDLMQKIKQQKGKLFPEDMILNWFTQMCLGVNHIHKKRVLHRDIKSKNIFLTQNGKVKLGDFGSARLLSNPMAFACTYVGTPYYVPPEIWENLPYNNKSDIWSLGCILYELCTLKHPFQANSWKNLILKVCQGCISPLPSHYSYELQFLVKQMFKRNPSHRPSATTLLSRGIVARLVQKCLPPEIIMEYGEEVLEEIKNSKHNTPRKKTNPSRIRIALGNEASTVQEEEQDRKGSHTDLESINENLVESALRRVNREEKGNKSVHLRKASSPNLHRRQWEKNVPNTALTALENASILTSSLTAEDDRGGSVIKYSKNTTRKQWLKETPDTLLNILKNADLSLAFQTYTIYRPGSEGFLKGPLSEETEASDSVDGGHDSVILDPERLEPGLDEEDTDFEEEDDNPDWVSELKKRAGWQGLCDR
Kind of test: Selectivity interaction (KinomeScan (DiscoverX)) EUB0000092b NEK3. The note with it: at 10 µM.

The target in test [7] is Serine/threonine-protein kinase Nek6 (Homo sapiens) (UniProt Q9HC98). Nature of the test: Selectivity interaction (Kinase panel (KiNativ target engagement assay in Jurkat cells)) EUB0001635a NEK6. The format is cell-based. The note with it: Selectivity number of off-targets 0.0, Selectivity number of targets 233.0, Source Knowledge https://www.sciencedirect.com/science/article/pii/S2451945619300674?via%3Dihub, at 1 µM.
Chain of Serine/threonine-protein kinase Nek6 (Homo sapiens) (Q9HC98 whole entry): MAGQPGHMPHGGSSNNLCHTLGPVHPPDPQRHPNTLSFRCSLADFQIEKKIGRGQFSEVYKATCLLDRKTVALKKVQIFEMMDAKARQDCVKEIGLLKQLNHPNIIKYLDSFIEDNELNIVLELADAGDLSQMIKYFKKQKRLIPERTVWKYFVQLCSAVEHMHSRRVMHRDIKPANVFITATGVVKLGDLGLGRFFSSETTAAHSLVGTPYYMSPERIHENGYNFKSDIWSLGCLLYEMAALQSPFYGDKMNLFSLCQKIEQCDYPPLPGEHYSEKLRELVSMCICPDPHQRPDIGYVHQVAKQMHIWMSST

Test [8] has as its target Cyclin-dependent kinase 17 (Homo sapiens) (UniProt Q00537). Kind of test: Selectivity interaction (Kinase panel (KiNativ target engagement assay in Jurkat cells)) EUB0001635a CDK17. The test is classed as cell-based. To be noted: Selectivity number of off-targets 0.0, Selectivity number of targets 233.0, Source Knowledge https://www.sciencedirect.com/science/article/pii/S2451945619300674?via%3Dihub, at 1 µM.

Chain of Platelet-derived growth factor receptor alpha (P16234 whole entry): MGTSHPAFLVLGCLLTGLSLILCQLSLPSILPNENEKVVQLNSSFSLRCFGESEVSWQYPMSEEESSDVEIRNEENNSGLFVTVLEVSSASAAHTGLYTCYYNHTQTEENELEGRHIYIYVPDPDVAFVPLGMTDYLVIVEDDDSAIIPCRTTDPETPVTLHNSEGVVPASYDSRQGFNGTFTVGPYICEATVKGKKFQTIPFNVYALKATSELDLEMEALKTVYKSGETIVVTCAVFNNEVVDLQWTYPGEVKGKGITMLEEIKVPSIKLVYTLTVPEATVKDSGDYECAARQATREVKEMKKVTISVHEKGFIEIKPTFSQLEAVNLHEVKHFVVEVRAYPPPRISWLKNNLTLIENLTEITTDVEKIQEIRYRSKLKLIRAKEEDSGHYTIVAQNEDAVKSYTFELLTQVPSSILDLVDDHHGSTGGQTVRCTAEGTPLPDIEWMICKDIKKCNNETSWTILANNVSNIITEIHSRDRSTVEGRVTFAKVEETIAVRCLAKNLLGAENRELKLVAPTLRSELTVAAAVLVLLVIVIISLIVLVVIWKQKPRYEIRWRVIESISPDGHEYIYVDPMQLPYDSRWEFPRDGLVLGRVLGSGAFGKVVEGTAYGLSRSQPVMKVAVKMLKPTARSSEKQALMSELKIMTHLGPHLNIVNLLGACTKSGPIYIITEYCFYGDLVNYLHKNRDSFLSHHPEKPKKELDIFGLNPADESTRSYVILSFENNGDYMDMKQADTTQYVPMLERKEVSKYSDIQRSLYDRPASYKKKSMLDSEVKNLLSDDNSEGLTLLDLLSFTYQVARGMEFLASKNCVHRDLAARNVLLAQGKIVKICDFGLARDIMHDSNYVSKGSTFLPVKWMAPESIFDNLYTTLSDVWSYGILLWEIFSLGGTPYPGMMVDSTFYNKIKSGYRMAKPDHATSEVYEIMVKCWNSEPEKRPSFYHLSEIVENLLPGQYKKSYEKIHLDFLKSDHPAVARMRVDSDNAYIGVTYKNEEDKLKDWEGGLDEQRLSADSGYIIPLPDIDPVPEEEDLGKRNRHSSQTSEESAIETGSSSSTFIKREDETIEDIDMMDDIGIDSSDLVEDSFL
Chain of Cyclin-dependent kinase 17 (Homo sapiens) (Q00537 whole entry, looked up): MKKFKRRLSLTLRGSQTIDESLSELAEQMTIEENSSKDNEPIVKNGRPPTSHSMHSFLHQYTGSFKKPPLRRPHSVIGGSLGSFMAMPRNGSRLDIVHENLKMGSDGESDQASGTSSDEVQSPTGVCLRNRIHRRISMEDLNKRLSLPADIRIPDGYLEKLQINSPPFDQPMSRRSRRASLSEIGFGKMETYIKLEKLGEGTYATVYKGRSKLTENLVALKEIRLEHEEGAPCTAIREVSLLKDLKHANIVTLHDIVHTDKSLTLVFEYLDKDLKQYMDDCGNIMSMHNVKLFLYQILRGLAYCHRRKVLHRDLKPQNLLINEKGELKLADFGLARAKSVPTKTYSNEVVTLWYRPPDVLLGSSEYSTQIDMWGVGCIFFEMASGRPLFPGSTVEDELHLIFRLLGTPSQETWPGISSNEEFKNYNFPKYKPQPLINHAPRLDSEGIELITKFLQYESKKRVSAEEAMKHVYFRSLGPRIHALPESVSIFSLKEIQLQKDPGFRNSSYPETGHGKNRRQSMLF

Consider `COCC(=O)NC/C=C/c1ccc2ncnc(Nc3ccc(Oc4ccc(C)nc4)c(C)c3)c2c1` [CP-724714], for which the % of control in test [1] was determined as 56%.

The molecule `N#Cc1cccc(-c2c[nH]c3ncnc(N4CCOCC4)c23)c1` registered a % of control in test [2] of 100%.

In the case of `CN(C)C/C=C/C(=O)Nc1ccc(C(=O)N2CCCC(Nc3ncc(Cl)c(-c4c[nH]c5ccccc45)n3)C2)cc1` (stereo not drawn), the % of control in test [3] was determined as 80%.

For `COc1cc(Nc2nc(C)cc(-c3cnn4nc(OC)ccc34)n2)cc(C(F)(F)F)c1`, the % of control in test [4] was found to be 87%.

On to `O[C@H]1CC[C@H](Nc2ncc3nc(Nc4c(F)cc(F)cc4F)n([C@H]4CCOC4)c3n2)CC1`, for which the % of control in test [5] amounted to 100%.

Consider `CCC(=O)N1CCN(c2ccc(-n3c(=O)ccc4cnc5ccc(-c6cnc7ccccc7c6)cc5c43)cc2C(F)(F)F)CC1`, for which the % of control in test [6] was 100%.

Take `C=CC(=O)Nc1ccc(C(=O)Nc2[nH]nc3c2CN(C(=O)N[C@H](CN(C)C)c2ccccc2)C3(C)C)cc1`: the % of engagement in test [7] amounted to 2.3%; in test [8], 12.8%.
